Legend:
ct-DNA = experiment: Fluorimetric titration with ct-DNA, Scatchard equation; type: binding, calf; design: key: The changes were too small to allow an accurate calculation of the binding constant; conditions: I = 0.05 M
Protocol: (§1) Experiments were conducted in an aqueous buffer solution (pH = 7.0 or pH= 5.0, I = 0.05 M, sodium cacodylate buffer). For the UV-Vis spectra were used Varian Cary 100 Bio spectrometer, for fluorescence spectra we used the Varian Cary Eclipse fluorimeter and for CD spectra we used the JASCO J815 spectropolarimeter, all conducted at 25.0 °C using appropriate quartz cuvettes (path length: 1 cm).
Polynucleotides were purchased as noted: poly dAdT-poly dAdT, poly dGdC-poly dGdC, poly A-poly U (ds-RNA), (Sigma-Aldrich, Schnelldorf, Germany), calf thymus (ct)-DNA (Sigma-Aldrich, Schnelldorf, Germany) and dissolved in sodium cacodylate buffer, I = 0.05 M, pH = 7.0. The ct-DNA was sonicated and filtered through a 0.45 µm filter to obtain mostly short (ca. 100 base pairs) rod-like B-helical DNA fragments. The concentration of DNA or RNA was determined spectroscopically as the c(nucleobase) using producer-provided molar extinction coefficients.
Fortunately, strong emission from the compounds studied allowed fluorimetric titrations to be performed at much lower concentrations of the dyes (c = 5 × 10^−8 M), thus preventing precipitation of non-methylated 1 or 2, and allowing for the collection of numerous data points at excess of DNA/RNA binding sites over c(dye). […] Intriguingly, mixed sequence ct-DNA caused emission quenching of 1M at an excess of dye over ct-DNA (r > 0.1), and such quenching could be attributed to aggregation of 1M along DNA, while at an excess of ct-DNA over dye (r << 0.1), emission increased. The emission of 2M was indiscriminately quenched by all ds-DNA/RNA (Figure 2d).
(§2) Processing of fluorimetric titrations by means of the Scatchard equation [56, 57] yielded binding constants (Table 2). […] Affinities of 1 and 2 toward BSA were the same at both pH values, supporting the conclusion that neutral forms of 1 and 2 were bound.

A549 cells [1] = experiment: Cell size (FSC) and complexity (SSC) by flow cytometry; type: cell-based, human; conditions: A549, 10 µM, UV irradiation
Protocol: To corroborate further the observed phenomena, we determined morphology changes in 2M-, 1-, and 1M-treated A549 cells after exposing them to UV light. Morphology changes were determined by flow cytometry, which allows the assessment of cell size (FSC) and complexity (SSC). […] This increase was the most pronounced in cells treated with 1 and 1M.

pUC19 plasmid DNA = experiment: Plasmid electrophoresis, photoinduced DNA nuclease activity; type: biochemical; conditions: 100 μM compound; for Photo-induced nuclease activity on plasmid DNA: 1 μg pUC19, UV light 15 and 45 s; for Effect on plasmid DNA forms without UV irradiation: 1 μg pUC19, non-irradiated
Protocol: Plasmid electrophoresis. For assessing the photoinduced DNA nuclease activity of compounds 2M, 1 and 1M, 1 μg of pUC19 plasmid DNA (2686 pb) was incubated with a 100 μM solution of the respective compound, and exposed to UV light (using a xenon arc lamp, Oriel, Stratford, CT, USA) for 15 and 45 s. After the treatment plasmid samples were run on 0.5% agarose gel, and stained with Midori Green DNA binding dye (Nippon Genetics, Düren, Germany). Non-irradiated samples containing compounds and plasmid DNA served as a control for assessing the photoinduced nuclease activity of the compound. Plasmid without the compound was irradiated with UV light under the same conditions to determine whether UV light itself induces changes in plasmid DNA forms (linear and supercoiled form). After gel electrophoresis, plasmid DNA forms were visualised on a UVITEC Imager (Cleaver Scientific, Rugby, UK).

A549 cells [2] = experiment: MTT cell viability assay, A549, with or without UV light; type: cell-based, human; conditions: for Ratio of IC50 non-irradiated vs UV-irradiated: A549; for Cytotoxic effect: A549, 10 μM and 1 μM, without UV; for Cytotoxic effect / IC50: MTT; for IC50: Homo sapiens, light or radiation study, 72 h
Protocol: Cells. Commercially available from American Type Culture Collection (ATCC), human epithelial lung adenocarcinoma A549 (ATCC® CCL-185™) and human normal lung fibroblast WI-38 (ATCC® CCL-75™) were grown according to supplier’s conditions, namely in Dulbecco Modified Eagle’s Medium (DMEM, Sigma Aldrich, St. Louis, MO, USA) supplemented with 10% of fetal bovine serum (FBS, Sigma Aldrich, USA). Cells were incubated in the cell incubator (Thermo Fischer Scientific, Waltham, MA, USA) at 37 °C and 5% CO2 in a humidified atmosphere.
Cell viability assay. In order to obtain a 10 mM stock solution chemical compounds (2M, 1, and 1M) were sterilely diluted in an appropriate volume of dimethyl sulfoxide solution (DMSO, Gram-Mol, Zagreb, Croatia). Solutions were kept in the dark and stored at 4 °C. The cytotoxic effects of each compound were assayed on A549 and WI-38 cells. […] Briefly, cells were seeded in 96-well tissue culture plates and 24 h later treated with 2M, 1, or 1M in the concentration range of 10–0.1 μM. Cells treated with the same dilutions of DMSO represented the control, while cells treated only with DMEM (10% FBS) represented the negative control. After 72 h, the media was removed, MTT solution was added into each well, and the plate was incubated (37 °C, 5% CO2) for 3 h. The resulting MTT-formazan products were dissolved using DMSO, and their absorbance at 600 nm was measured using a microplate reader.
For determining the effect of UV exposure, cells were seeded on two plates and treated with working solutions of the respective compounds as previously described. Plates were incubated (37 °C, 5% CO2) for 90 min, allowing the compounds to enter the cells. Then, one plate was exposed to UV light (Luzchem reactor, 350 nm, 8 lamps, in total 8 W, dose 50.6 mWm^−2; ~18 cm lamp to cell-plate) for 5 min, 3 days in a row at the same time each day, while the other plate was left in the cell incubator in the dark and served as a control.

BSA = BSA (Bos taurus, UniProt P02769); experiment: Fluorimetric titration with BSA, Scatchard equation; type: binding, bovine; conditions: I = 0.05 M; for Kd: pH 7, sodium cacodylate buffer, read-out: Binding constant logKs BSA (converted)
Protocol: as §1
As the pharmacokinetic properties of small molecules often depend on a binding affinity toward transport proteins (such as serum albumin), we performed fluorimetric titrations with BSA. The emission of both 1M and 2M (Supplementary Information, Figures S15 and S16), was strongly quenched, with compound 2M showing a lower affinity in comparison to ds-DNA/RNA, while the affinity of 1M was similar to that towards ds-DNA/RNA (Table 2).
as §2

[3] = A549, UV-irradiated (350 nm, 5 min, 3 days in a row)

Sequence of BSA (P02769 25-607): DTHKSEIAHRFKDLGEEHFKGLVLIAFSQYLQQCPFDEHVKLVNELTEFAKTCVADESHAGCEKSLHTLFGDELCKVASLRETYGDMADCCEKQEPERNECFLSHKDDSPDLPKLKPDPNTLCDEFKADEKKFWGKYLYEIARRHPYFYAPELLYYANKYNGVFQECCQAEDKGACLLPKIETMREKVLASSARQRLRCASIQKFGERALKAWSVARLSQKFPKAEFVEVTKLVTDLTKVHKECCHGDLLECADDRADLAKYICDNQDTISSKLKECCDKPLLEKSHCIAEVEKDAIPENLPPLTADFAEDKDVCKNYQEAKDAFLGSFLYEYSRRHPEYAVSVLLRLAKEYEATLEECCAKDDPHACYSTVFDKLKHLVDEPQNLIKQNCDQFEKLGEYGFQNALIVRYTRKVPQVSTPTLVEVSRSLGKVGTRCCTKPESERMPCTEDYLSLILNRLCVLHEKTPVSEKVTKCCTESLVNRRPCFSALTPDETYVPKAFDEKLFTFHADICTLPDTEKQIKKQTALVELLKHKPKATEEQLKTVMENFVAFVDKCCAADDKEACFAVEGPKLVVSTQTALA

Compound | Binding constant logKs ct-DNA (ct-DNA; pH 5, sodium cacodylate buffer) | Binding constant logKs ct-DNA (ct-DNA; pH 7, sodium cacodylate buffer) | Cell size (FSC) (A549 cells [1]) | Photo-induced nuclease activity on plasmid DNA (pUC19 plasmid DNA) | Ratio of IC50 non-irradiated vs UV-irradiated (A549 cells [2]) | Cytotoxic effect (A549 cells [2]) | IC50 (A549 cells [2]; [3]) [nM] | IC50 (A549 cells [2]; A549, non-irradiated) [nM] | Binding constant logKs BSA (BSA; pH 5, sodium cacodylate buffer) | Kd (BSA) [nM] | Effect on plasmid DNA forms without UV irradiation (pUC19 plasmid DNA)
c1cc2ccc3cc(-c4ccncc4)cc4ccc(c1)c2c34 [compound 1] | 5.3 | b | increase in cell size | did not show any influence on DNA plasmid forms | four times | considerable cytotoxic effects | 2000 | 8000 | 5.5 | 3160 | 
C[n+]1ccc(-c2cc3ccc4cccc5ccc(c2)c3c45)cc1 [1M, 2-para-N-methylpyridinium pyrene] |  | 5.5 | increase in cell size | strong photo-induced nuclease activity | 15 | considerable cytotoxic effects | 100 | 1500 |  | 3980 | nicking of the plasmid DNA
C[n+]1ccc(-c2cc3ccc4cc(-c5cc[n+](C)cc5)cc5ccc(c2)c3c45)cc1 [2M] |  | 8.8 | increase in cell size | strong photo-induced nuclease activity | four times | considerable cytotoxic effects | 2000 | 8000 |  | 126 | unwinding of supercoiled DNA even without UV irradiation

— paper PMC9696974 (Pharmaceutics, 2022)
